Experimental data: ChEMBL document CHEMBL1129601, “Inhibitors of acyl-CoA: cholesterol O-acyl transferase (ACAT) as hypocholesterolemic agents. CI-1011: an acyl sulfamate with unique cholesterol-lowering activity in animals fed noncholesterol-supplemented diets” (J Med Chem, 1996)
Values joined by “and” are separate entries in the source; they are usually repeats but may differ in a detail not shown here. Identical values can stand only once.

Legend:
Rattus norvegicus [1] = assay: Evaluated for %change in cholesterol fed rats for non-HDL-C at the dose of 0.001 mg/kg determined by Chronic screen test; assay type: functional
Rattus norvegicus [2] = assay: Evaluated for %change in Normal, Chow fed rats for total cholesterol plasma level in rats at the dose of 3 mg/kg; assay type: functional
Rattus norvegicus [3] = assay: Evaluated for %change in Normal, Chow fed rats for total cholesterol plasma level in rats at the dose of 30 mg/kg; assay type: functional
Rattus norvegicus [4] = assay: Effect on the Cholesterol fed rats for total cholesterol level in rats at the dose of 0.03 mg/kg by Chroinc screen test; assay type: functional; note: unit not given here
Rattus norvegicus [5] = assay: Evaluated for %change in cholesterol fed rats for HDL-C at the dose of 0.01 mg/kg determined by Chronic screen test; assay type: functional
Rattus norvegicus [6] = assay: Effect on the Cholesterol fed rats for non-HDL-C in rats at the dose of 3 mg/kg by Chroinc screen test; assay type: functional; note: unit not given here
Rattus norvegicus [7] = assay: Evaluated for %change in cholesterol fed rats for non-HDL-C at the dose of 1 mg/kg determined by Chronic screen test; assay type: functional
Rattus norvegicus [8] = assay: Evaluated for %change in cholesterol fed rats for HDL-C at the dose of 0.3 mg/kg determined by Chronic screen test; assay type: functional
Rattus norvegicus [9] = assay: Evaluated for %change in cholesterol fed rats for HDL-C at the dose of 1 mg/kg determined by Chronic screen test; assay type: functional
Rattus norvegicus [10] = assay: Effect on the Cholesterol fed rats for total cholesterol level in rats at the dose of 0.001 mg/kg by Chroinc screen test; assay type: functional
Rattus norvegicus [11] = assay: Effect on the Normal, Chow fed rats for Plasma total triglyceride level in rats at the dose of 30 mg/kg; assay type: functional, organism-based; parameters: dose 30 mg/kg
Rattus norvegicus [12] = assay: Evaluated for %change in Normal, Chow fed for rats Plasma total triglyceride plasma level in rats at the dose of 30 mg/kg; assay type: functional
Rattus norvegicus [13] = assay: Effect on the Cholesterol fed rats for total cholesterol level in rats at the dose of 1 mg/kg by Chroinc screen test; assay type: functional; note: unit not given here
Rattus norvegicus [14] = assay: Effect on the plasma cholesterol level in rats at the dose of 1 mg/kg by Acute screen test; assay type: functional, organism-based; parameters: dose 1 mg/kg
Rattus norvegicus [15] = assay: Evaluated for %change in cholesterol fed rats at the dose of 0.1 mg/kg determined by Acute screen test; assay type: functional
Rattus norvegicus [16] = assay: Evaluated for %change in cholesterol fed rats for HDL-C at the dose of 10 mg/kg determined by Chronic screen test; assay type: functional
Rattus norvegicus [17] = assay: Evaluated for %change in cholesterol fed rats for total cholesterol at the dose of 0.3 mg/kg determined by Chronic screen test; assay type: functional
Rattus norvegicus [18] = assay: Evaluated for %change in cholesterol fed rats for non-HDL-C at the dose of 0.1 mg/kg determined by Chronic screen test; assay type: functional
Oryctolagus cuniculus [19] = assay: Effect on Rabbits (Fed a Cholesterol-Free Casein Diet ) for plasma cholesterol at the dose of 10 mg/kg (post treatment); assay type: functional, organism-based; parameters: dose 10 mg/kg
Rattus norvegicus [20] = assay: Evaluated for %change in cholesterol fed rats at the dose of 3 mg/kg determined by Acute screen test; assay type: functional
Rattus norvegicus [21] = assay: Effect on the Normal, Chow fed rats for Plasma total triglyceride level in rats at the dose of 10 mg/kg; assay type: functional, organism-based; parameters: dose 10 mg/kg
Rattus norvegicus [22] = assay: Evaluated for %change in cholesterol fed rats for non-HDL-C at the dose of 0.3 mg/kg determined by Chronic screen test; assay type: functional
Oryctolagus cuniculus [23] = assay: Effect on Rabbits (Fed a Cholesterol-Free Casein Diet ) for plasma cholesterol at the dose of 1 mg/kg (pretreatment); assay type: functional, organism-based; parameters: dose 1 mg/kg
Rattus norvegicus [24] = assay: Evaluated for %change in cholesterol fed rats for total cholesterol at the dose of 0.01 mg/kg determined by Chronic screen test; assay type: functional
Oryctolagus cuniculus [25] = assay: Effect on Rabbits (Fed a Cholesterol-Free Casein Diet ) for plasma cholesterol at the dose of 1 mg/kg (post treatment); assay type: functional, organism-based; parameters: dose 1 mg/kg
Rattus norvegicus [26] = assay: Effect on the Normal, Chow fed rats for total cholesterol plasma level in rats at the dose of 3 mg/kg; assay type: functional, organism-based; parameters: dose 3 mg/kg
Rattus norvegicus [27] = assay: Effect on the Cholesterol fed rats for HDL-C in rats at the dose of 0.1 mg/kg by Chroinc screen test; assay type: functional
Rattus norvegicus [28] = assay: Evaluated for %change in cholesterol fed rats for HDL-C at the dose of 0.001 mg/kg determined by Chronic screen test; assay type: functional
Rattus norvegicus [29] = assay: Effect on the Cholesterol fed rats for HDL-C in rats at the dose of 1 mg/kg by Chroinc screen test; assay type: functional; note: unit not given here
Oryctolagus cuniculus [30] = assay: Effect on Rabbits (Fed a Cholesterol-Free Casein Diet ) for plasma cholesterol at the dose of 10 mg/kg (pretreatment); assay type: functional, organism-based; parameters: dose 10 mg/kg
Rattus norvegicus [31] = assay: Effect on the Cholesterol fed rats for total cholesterol level in rats at the dose of 10 mg/kg by Chroinc screen test; assay type: functional; note: unit not given here
Rattus norvegicus [32] = assay: Effect on the Cholesterol fed rats for total cholesterol level in rats at the dose of 0.3 mg/kg by Chroinc screen test; assay type: functional
Rattus norvegicus [33] = assay: Effect on the Normal, Chow fed rats for total cholesterol plasma level in rats at the dose of 30 mg/kg; assay type: functional, organism-based; parameters: dose 30 mg/kg
Rattus norvegicus [34] = assay: Evaluated for %change in cholesterol fed rats for total cholesterol at the dose of 3 mg/kg determined by Chronic screen test; assay type: functional
Rattus norvegicus [35] = assay: Effect on the Cholesterol fed rats for HDL-C in rats at the dose of 0.001 mg/kg by Chroinc screen test; assay type: functional; note: unit not given here
Rattus norvegicus [36] = assay: Evaluated for %change in cholesterol fed rats for HDL-C at the dose of 0.03 mg/kg determined by Chronic screen test; assay type: functional
Rattus norvegicus [37] = assay: Evaluated for %change in cholesterol fed rats for total cholesterol at the dose of 1 mg/kg determined by Chronic screen test; assay type: functional
Rattus norvegicus [38] = assay: Effect on the Cholesterol fed rats for non-HDL-C in rats at the dose of 0.1 mg/kg by Chroinc screen test; assay type: functional
Rattus norvegicus [39] = assay: Evaluated for %change in cholesterol fed rats for non-HDL-C at the dose of 0.01 mg/kg determined by Chronic screen test; assay type: functional
Rattus norvegicus [40] = assay: Effect on the plasma Cholesterol level in rats at the dose of 0.1 mg/kg by Acute screen test; assay type: functional, organism-based; parameters: dose 0.1 mg/kg
Rattus norvegicus [41] = assay: Effect on the Cholesterol fed rats for non-HDL-C in rats at the dose of 1 mg/kg by Chroinc screen test; assay type: functional
Rattus norvegicus [42] = assay: Effect on the Cholesterol fed rats for HDL-C in rats at the dose of 0.03 mg/kg by Chroinc screen test; assay type: functional; note: unit not given here
Rattus norvegicus [43] = assay: Evaluated for %change in cholesterol fed rats for non-HDL-C at the dose of 0.03 mg/kg determined by Chronic screen test; assay type: functional
Rattus norvegicus [44] = assay: Effect on the Cholesterol fed rats for total cholesterol level in rats at the dose of 3 mg/kg by Chroinc screen test; assay type: functional
Rattus norvegicus [45] = assay: Effect on the Cholesterol fed rats for non-HDL-C in rats at the dose of 0.001 mg/kg by Chroinc screen test; assay type: functional
Rattus norvegicus [46] = assay: Evaluated for %change in Normal, Chow fed for rats Plasma total triglyceride plasma level in rats at the dose of 10 mg/kg; assay type: functional
Rattus norvegicus [47] = assay: Effect on the Cholesterol fed rats for HDL-C in rats at the dose of 3 mg/kg by Chroinc screen test; assay type: functional
Rattus norvegicus [48] = assay: Evaluated for %change in Normal, Chow fed for rats Plasma total triglyceride plasma level in rats at the dose of 3 mg/kg; assay type: functional
Rattus norvegicus [49] = assay: Evaluated for %change in cholesterol fed rats for non-HDL-C at the dose of 3 mg/kg determined by Chronic screen test; assay type: functional
Rattus norvegicus [50] = assay: Evaluated for %change in cholesterol fed rats for HDL-C at the dose of 0.1 mg/kg determined by Chronic screen test; assay type: functional

CC(C)c1cc(C(C)C)c(CC(=O)NS(=O)(=O)Oc2c(C(C)C)cccc2C(C)C)c(C(C)C)c1 [AVASIMIBE]
Change (Rattus norvegicus [1]): 3% | Change (Rattus norvegicus [2]): -16% | Change (Rattus norvegicus [3]): -30% | TC (Rattus norvegicus [4]): 334 | Change (Rattus norvegicus [5]): -12% | Non-HDL-C (Rattus norvegicus [6]): 59 | Change (Rattus norvegicus [7]): -70% | Change (Rattus norvegicus [8]): 42% | Change (Rattus norvegicus [9]): 76% | TC (Rattus norvegicus [10]): 551 | Plasma TG (Rattus norvegicus [11]): 58 mg/dL | Change (Rattus norvegicus [12]): -66% | TC (Rattus norvegicus [13]): 86 | Plasma cholesterol (Rattus norvegicus [14]): 72 mg/dL | Change (Rattus norvegicus [15]): -32% | Change (Rattus norvegicus [16]): 155% | Change (Rattus norvegicus [17]): -60% | Change (Rattus norvegicus [18]): -45% and -41% | Plasma cholesterol (Oryctolagus cuniculus [19]): 118 mg/dL | Change (Rattus norvegicus [20]): -64% | Plasma TG (Rattus norvegicus [21]): 75 mg/dL | Change (Rattus norvegicus [22]): -66% | Plasma cholesterol (Oryctolagus cuniculus [23]): 215 mg/dL | Change (Rattus norvegicus [24]): 16% | Plasma cholesterol (Oryctolagus cuniculus [25]): 184 mg/dL | Plasma TC (Rattus norvegicus [26]): 49 mg/dL | HDL-C (Rattus norvegicus [27]): 16 and 18 | Change (Rattus norvegicus [28]): -3% | HDL-C (Rattus norvegicus [29]): 25 | Plasma cholesterol (Oryctolagus cuniculus [30]): 209 mg/dL | TC (Rattus norvegicus [31]): 69 | TC (Rattus norvegicus [32]): 90 | Plasma TC (Rattus norvegicus [33]): 41 mg/dL | Change (Rattus norvegicus [34]): -59% | HDL-C (Rattus norvegicus [35]): 16 | Change (Rattus norvegicus [36]): -12% | Change (Rattus norvegicus [37]): -61% | Non-HDL-C (Rattus norvegicus [38]): 114 and 306 | Change (Rattus norvegicus [39]): 17% | Plasma cholesterol (Rattus norvegicus [40]): 124 mg/dL | Non-HDL-C (Rattus norvegicus [41]): 61 | HDL-C (Rattus norvegicus [42]): 15 | Change (Rattus norvegicus [43]): -38% | TC (Rattus norvegicus [44]): 92 | Non-HDL-C (Rattus norvegicus [45]): 535 | Change (Rattus norvegicus [46]): -55% | HDL-C (Rattus norvegicus [47]): 33 | Change (Rattus norvegicus [48]): -44% | Change (Rattus norvegicus [49]): -72% | Change (Rattus norvegicus [50]): 17% and 7%
